# From ChEMBL document CHEMBL3046897, “Synthesis of 3-{4-[4-dimethylamino-6-(4-methyl-2-oxo-2H-chromen-7-yloxy)-[1,3,5]triazin-2-ylamino]-phenyl}-2-phenyl-5-(4-pyridin-2-yl-piperazin-1-ylmethyl)-thiazolidin-4-one and their biological evaluation” (2012)
# The source made the active and inactive calls. The rule behind the calls is not given here.
# Key:
# [1] = system: Aspergillus niger; experiment: Antifungal activity against Aspergillus niger at 100 ug/disk after 48 hr by paper disk diffusion method; type: functional; details: read-out: IZ
# [2] = system: Staphylococcus aureus; experiment: Antibacterial activity against Staphylococcus aureus at 100 ug/disc after 24 hr by paper disk diffusion method; type: functional; details: read-out: IZ
# [3] = system: Pseudomonas aeruginosa; experiment: Antibacterial activity against Pseudomonas aeruginosa at 100 ug/disk after 24 hr by paper disk diffusion method; type: functional; details: read-out: IZ
# [4] = system: Aspergillus fumigatus; experiment: Antifungal activity against Aspergillus fumigatus at 100 ug/ml after 48 hr by agar streak dilution method; type: functional, organism-based
# [5] = system: Escherichia coli; experiment: Antibacterial activity against Escherichia coli at 100 ug/disk after 24 hr by paper disk diffusion method; type: functional; details: read-out: IZ
# [6] = system: Salmonella typhi; experiment: Antibacterial activity against Salmonella enterica subsp. enterica serovar Typhi at 100 ug/disk after 24 hr by paper disk diffusion method; type: functional; details: read-out: IZ
# [7] = system: Escherichia coli; experiment: Antibacterial activity against Escherichia coli after 24 hr by agar streak dilution method; type: functional
# [8] = system: Aspergillus clavatus; experiment: Antifungal activity against Aspergillus clavatus at 100 ug/disc after 48 hr by paper disk diffusion method; type: functional; details: read-out: IZ
# [9] = system: Bacillus subtilis; experiment: Antibacterial activity against Bacillus subtilis after 24 hr by agar streak dilution method; type: functional
# [10] = system: Aspergillus clavatus; experiment: Antifungal activity against Aspergillus clavatus after 48 hr by agar streak dilution method; type: functional
# [11] = system: Shigella flexneri; experiment: Antibacterial activity against Shigella flexneri after 24 hr by agar streak dilution method; type: functional
# [12] = system: Staphylococcus aureus; experiment: Antibacterial activity against Staphylococcus aureus after 24 hr by agar streak dilution method; type: functional
# [13] = system: Candida albicans; experiment: Antifungal activity against Candida albicans at 100 ug/ml after 48 hr by agar streak dilution method; type: functional, organism-based
# [14] = system: Pseudomonas aeruginosa; experiment: Antibacterial activity against Pseudomonas aeruginosa after 24 hr by agar streak dilution method; type: functional
# [15] = system: Aspergillus niger; experiment: Antifungal activity against Aspergillus niger after 48 hr by agar streak dilution method; type: functional
# [16] = system: Bacillus subtilis; experiment: Antibacterial activity against Bacillus subtilis at 100 ug/disk after 24 hr by paper disk diffusion method; type: functional; details: read-out: IZ
# [17] = system: Klebsiella pneumoniae; experiment: Antibacterial activity against Klebsiella pneumoniae at 100 ug/ml after 24 hr by agar streak dilution method; type: functional, organism-based
# [18] = system: Salmonella typhi; experiment: Antibacterial activity against Salmonella enterica subsp. enterica serovar Typhi after 24 hr by agar streak dilution method; type: functional
# [19] = system: Proteus vulgaris; experiment: Antibacterial activity against Proteus vulgaris after 24 hr by agar streak dilution method; type: functional
# [20] = system: Proteus vulgaris; experiment: Antibacterial activity against Proteus vulgaris at 100 ug/disk after 24 hr by paper disk diffusion method; type: functional; details: read-out: IZ
# [21] = system: Shigella flexneri; experiment: Antibacterial activity against Shigella flexneri at 100 ug/disc after 24 hr by paper disk diffusion method; type: functional; details: read-out: IZ
# [22] = system: Aspergillus fumigatus; experiment: Antifungal activity against Aspergillus fumigatus after 48 hr by agar streak dilution method; type: functional
# [23] = system: Candida albicans; experiment: Antifungal activity against Candida albicans after 48 hr by agar streak dilution method; type: functional
# [24] = system: Klebsiella pneumoniae; experiment: Antibacterial activity against Klebsiella pneumoniae after 24 hr by agar streak dilution method; type: functional
# [25] = system: Klebsiella pneumoniae; experiment: Antibacterial activity against Klebsiella pneumoniae at 100 ug/disk after 24 hr by paper disk diffusion method; type: functional; details: read-out: IZ
# [26] = system: Candida albicans; experiment: Antifungal activity against Candida albicans at 100 ug/disk after 48 hr by paper disk diffusion method; type: functional; details: read-out: IZ
# [27] = system: Shigella flexneri; experiment: Antibacterial activity against Shigella flexneri at 100 ug/ml after 24 hr by agar streak dilution method; type: functional, organism-based
# [28] = system: Aspergillus fumigatus; experiment: Antifungal activity against Aspergillus fumigatus at 100 ug/disc after 48 hr by paper disk diffusion method; type: functional; details: read-out: IZ
# [29] = system: Proteus vulgaris; experiment: Antibacterial activity against Proteus vulgaris at 100 ug/ml after 24 hr by agar streak dilution method; type: functional, organism-based
# [30] = system: Escherichia coli; experiment: Antibacterial activity against Escherichia coli at 100 ug/ml after 24 hr by agar streak dilution method; type: functional, organism-based
# [31] = system: Salmonella typhi; experiment: Antibacterial activity against Salmonella enterica subsp. enterica serovar Typhi at 100 ug/ml after 24 hr by agar streak dilution method; type: functional, organism-based
# [32] = system: Pseudomonas aeruginosa; experiment: Antibacterial activity against Pseudomonas aeruginosa at 100 ug/ml after 24 hr by agar streak dilution method; type: functional, organism-based
SMILES,zone of inhibition at 100 µg/disc [1],zone of inhibition at 100 µg/disc [2],zone of inhibition at 100 µg/disc [3],zone of inhibition at 100 µg/disc [5],zone of inhibition at 100 µg/disc [6],MIC [7],zone of inhibition at 100 µg/disc [8],MIC [9],MIC [10],MIC [11],MIC [12],Activity [13],MIC [14],MIC [15],zone of inhibition at 100 µg/disc [16],MIC [18],zone of inhibition at 100 µg/disc [21],MIC [22],MIC [24],zone of inhibition at 100 µg/disc [25],also measured
COc1ccc(/C=N/c2ccc(Nc3nc(Oc4ccc5c(C)cc(=O)oc5c4)nc(N(C)C)n3)cc2)cc1OC,12 mm,16 mm,10 mm,< 10 mm,12 mm,100 µg/mL,< 10 mm,100 µg/mL,100 µg/mL,100 µg/mL,50 µg/mL,inactive,100 µg/mL,100 µg/mL,12 mm,100 µg/mL,13 mm,–,–,–,Activity [4]: inactive; Activity [17]: inactive; MIC [19]: 100 µg/mL; zone of inhibition at 100 µg/disc [20]: < 10 mm
Cc1cc(=O)oc2cc(Oc3nc(Nc4ccc(/N=C/c5ccccc5Br)cc4)nc(N(C)C)n3)ccc12,15 mm,13 mm,18 mm,14 mm,< 10 mm,100 µg/mL,18 mm,50 µg/mL,50 µg/mL,–,100 µg/mL,–,50 µg/mL,100 µg/mL,16 mm,100 µg/mL,–,25 µg/mL,100 µg/mL,< 10 mm,MIC [23]: 50 µg/mL; zone of inhibition at 100 µg/disc [26]: 19 mm; Activity [27]: inactive; MIC [19]: 100 µg/mL; zone of inhibition at 100 µg/disc [20]: 13 mm; zone of inhibition at 100 µg/disc [28]: 20 mm
Cc1cc(=O)oc2cc(Oc3nc(Nc4ccc(/N=C/c5ccccc5)cc4)nc(N(C)C)n3)ccc12,< 10 mm,11 mm,12 mm,< 10 mm,< 10 mm,100 µg/mL,< 10 mm,100 µg/mL,100 µg/mL,–,100 µg/mL,inactive,100 µg/mL,100 µg/mL,10 mm,100 µg/mL,–,–,–,–,Activity [4]: inactive; Activity [27]: inactive; Activity [29]: inactive; Activity [17]: inactive
Cc1cc(=O)oc2cc(Oc3nc(Nc4ccc(/N=C/c5ccccc5C(=O)O)cc4)nc(N(C)C)n3)ccc12,10 mm,13 mm,11 mm,–,–,–,< 10 mm,100 µg/mL,100 µg/mL,100 µg/mL,100 µg/mL,inactive,100 µg/mL,100 µg/mL,11 mm,–,11 mm,100 µg/mL,100 µg/mL,< 10 mm,Activity [30]: inactive; Activity [31]: inactive; Activity [29]: inactive; zone of inhibition at 100 µg/disc [28]: < 10 mm
Cc1cc(=O)oc2cc(Oc3nc(Nc4ccc(/N=C/c5ccc([N+](=O)[O-])cc5)cc4)nc(N(C)C)n3)ccc12,< 10 mm,< 10 mm,–,< 10 mm,13 mm,100 µg/mL,13 mm,100 µg/mL,100 µg/mL,100 µg/mL,100 µg/mL,inactive,–,100 µg/mL,< 10 mm,100 µg/mL,< 10 mm,100 µg/mL,100 µg/mL,< 10 mm,Activity [32]: inactive; Activity [29]: inactive; zone of inhibition at 100 µg/disc [28]: < 10 mm
